Assay results from patent US6410751B1, “Water soluble tri-substituted 1, 2-dioxetane compounds having increased storage stability, synthetic processes and intermediates” (Lumigen, Inc., priority 1995, dated 2002).
Read-outs that look alike come from different tables or passages of the source.

What was measured:
[1] = Storage stability of dioxetane formulations measured by chemiluminescent enzyme assay; assay type: physicochemical; conditions: for % of Dioxetane Remaining: 0.5 mM dioxetane formulation pH 10, temperature not given (FIG. 5: 25° C.)
Excerpt: Storage stability is related to the rate of decomposition of the dioxetane due to spontaneous reaction and is an intrinsic property. Decomposition of triggerable dioxetanes can also be induced by the presence of trace quantities of agents which catalyze the removal of a protecting group and thus initiate the decomposition. Storage stability of a dioxetane can be assessed by measuring the quantity of dioxetane present in a known sample at periodic intervals. The measurement can take any form known which measures a property relatable to the quantity of dioxetane. Techniques such as spectrophotometry, NMR spectrometry and the like are exemplary. A convenient means is to measure the amount of light produced by reacting a known quantity of dioxetane with a triggering agent under a standard set of conditions. A decrease in the amount or intensity of light emitted signals a loss of dioxetane compound.
A fluoro-substituted analog of dioxetane 1, identified as 3, a chloro-substituted analog 4 and a methyl-substituted analog 5 have been prepared and their storage stability evaluated over several weeks. Storage stability of a solution of 1 was measured for comparison. All solutions were prepared with the same composition, differing only in the identity of the dioxetane. Stability was evaluated by chemiluminescent enzyme assay with a fixed volume of test solution and fixed limiting amount of alkaline phosphatase and measuring the plateau light intensity at 25° C.
Formulations comprising 0.1 mg/mL Enhancer A, 0.88 mM Mg^+2 , 0.2 M 2-amino-2-methyl-1-propanol, pH 10, 0.1% Triton X-100 and 0.5 mM dioxetane 1, 3, 4 and 5, respectively, were prepared and stored in opaque polyethylene bottles at 4° C., 25° C. and 40° C. Twenty four 100 μL aliquots from each bottle were pipetted into the wells of a 96 well plate and the solutions incubated at 37° C. Into each well 10 μL solutions containing 8×10^−17 moles of AP were injected and light intensity integrated over five hours. Data are the average of all 24 wells. The experiment was repeated at the indicated time intervals for each dioxetane. The results in FIG. 5 show the comparative stability of the three formulations at 25° C.

[2] = Enhancement of luminescent signal of a reagent based on dioxetane 1 by enhancers and fluorescers; conditions: for Factor of increase of luminescent signal: reagent based on dioxetane 1; for Enhancement Factor: 1 mg/mL Enhancer A
Excerpt: As part of the optimization of a reagent based on dioxetane 1, a number of enhancer materials was examined. At pH 9.6, Enhancer A (1-trioctylphosphoniummethyl-4-tributylphosphoniummethylbenzene dichloride) increased the luminescent signal by a factor of 6.2, and Enhancer B (poly(vinylbenzyltributylphosphonium chloride)) increased the signal by a factor of 19.7. At pH 10.0, Enhancer A increased the signal by a factor of 4.8, and Enhancer B increased the signal by a factor of 18.9.
Tables 2 and 3 show the extent of enhancement by pyranine and fluorescein, respectively, in the presence of 1 mg/mL of Enhancer A.

[3] = Reagent carryover in capsule chemistry analysis system (TECHNICON IMMUNO 1 TSH method, luminescence detection); conditions: R3 reagent with 0.2 mM CSPD; 3 mM pyranine omitted from test N only
Description: The experiments described below were performed on a prototype capsule chemistry analysis system essentially as described by Kumar et al in U.S. Pat. No. 5,399,497, with the detection system configured to measure light emission (luminescence). The method and apparatus comprises feeding a stream of fluid segments through a Teflon tube, where the tube has an isolating layer of fluorocarbon oil on the inner surface. Sample and reagents are aspirated into this tube, and the resulting liquid segments are moved through the tube. […] The detection system was comprised of a photon counter and a fiber optic read head, in which the fibers were radially arranged around the Teflon tube to maximize the efficiency of light collection.
The TECHNICON IMMUNO 1® TSH method (Bayer Corporation, Tarrytown, N.Y., USA) was used as a representative immunoassay method for the testing of luminogenic reagents. […] The particles were then exposed to the luminogenic reagent, which contained a substrate for ALP, and luminescence was measured.
R1 (10.4 μl of serum-based solution containing fluorescein-labeled antibody to TSH), R2 (10.4 μl of serum-based solution containing antibody to TSH conjugated with ALP) and S (7.2 μl of serum sample) were aspirated into the second segment. […] The fifth segment was R3, of the composition described above, with the key elements being the luminogenic substrate and the luminescence enhancer. […]

alkaline phosphatase = experiment: Performance of detection reagent in assays for AP in the capsule chemistry test system; assay type: biochemical; conditions: fluorescein-labeled alkaline phosphatase conjugate captured onto magnetic particles
Description: The experiments described below were performed on a prototype capsule chemistry analysis system essentially as described by Kumar et al in U.S. Pat. No. 5,399,497, with the detection system configured to measure light emission (luminescence). The method and apparatus comprises feeding a stream of fluid segments through a Teflon tube, where the tube has an isolating layer of fluorocarbon oil on the inner surface. Sample and reagents are aspirated into this tube, and the resulting liquid segments are moved through the tube. Separation steps and washing steps which are required by heterogeneous immunoassay methods were facilitated by means of magnets, which transferred magnetic particles from one aqueous segment to another. The detection system was comprised of a photon counter and a fiber optic read head, in which the fibers were radially arranged around the Teflon tube to maximize the efficiency of light collection.
A detection reagent incorporating dioxetane 3 was evaluated in a test system as described in Example 7. The test material was a fluorescein-labeled alkaline phosphatase conjugate which was captured onto the magnetic particles.

[4] = aqueous solutions, 25° C., four weeks

O=C([O-])C(CCOC1(c2cccc(OP(=O)([O-])[O-])c2)OOC12C1CC3CC(C1)CC2C3)C(=O)[O-].[Na+].[Na+].[Na+].[Na+] (centres unmarked) [Dioxetane 1]
% of Dioxetane Remaining ([1]; 0 wks): 100% | % of Dioxetane Remaining ([1]; 1 wk): 94.8% | % of Dioxetane Remaining ([1]; 2 wks): 91.1% | % of Dioxetane Remaining ([1]; 3 wks): 87.5% | % of Dioxetane Remaining ([1]; 4 wks): 84.1% | % of Dioxetane Remaining ([1]; 5 wks): 81.8% | % of Dioxetane Remaining ([1]; 6 wks): 80.7% | % of Dioxetane Remaining ([1]; 9 wks): 76.5% | Decomposition on storage (in words) ([1]; alkaline buffer, 25° C., two weeks): significant decomposition | Storage stability compared with other dioxetanes (in words) ([1]; aqueous buffer solutions, 25° C.): significantly less stable than a related compound, Lumigen PPD

CCCCCCCC[P+](CCCCCCCC)(CCCCCCCC)Cc1ccc(C[P+](CCCC)(CCCC)CCCC)cc1.[Cl-].[Cl-] [Enhancer A, 1-trioctylphosphoniummethyl-4-tributylphosphoniummethylbenzene dichloride]
Factor of increase of luminescent signal ([2]; pH 9.6): 6.2 | Factor of increase of luminescent signal ([2]; pH 10.0): 4.8

O=S(=O)([O-])c1cc(O)c2ccc3c(S(=O)(=O)[O-])cc(S(=O)(=O)[O-])c4ccc1c2c34.[Na+].[Na+].[Na+] [Pyranine]
Factor by which signal in test N was lower when the fluorescent enhancer was omitted [3]: approximately 10 | Enhancement Factor ([2]; 0.01 mM fluorescer): 3.7 | Enhancement Factor ([2]; 0.02 mM fluorescer): 7.3 | Enhancement Factor ([2]; 0.03 mM fluorescer): 9.8 | Enhancement Factor ([2]; 0.04 mM fluorescer): 12.2 | Enhancement Factor ([2]; 0.05 mM fluorescer): 13.7 | Enhancement by fluorescer alone ([2]; fluorescer 3 mM, without Enhancer A): about ten-fold

[4-(3,3-biscarboxy)-3-chloropropoxy)-4-(3-phosphoryloxyphenyl)]spiro[1,2-dioxetane-3,2′-tricyclo [3.3.1.1^3,7]decane], tetrasodium salt [Dioxetane 4]
Storage stability compared with other dioxetanes (in words) [1]: worse than that of 1

[4-(3,3-biscarboxy)-3-fluoropropoxy)-4-(3-phosphoryloxyphenyl)]spiro[1,2-dioxetane-3,2′-tricyclo [3.3.1.1^3,7]decane], tetrasodium salt [Dioxetane 3]
Assay performance (sensitivity, dynamic range, precision) in words (alkaline phosphatase): sensitivity, dynamic range and precision comparable to the results using dioxetane 1 | Decomposition on storage (in words) [1, 4]: essentially no decomposition

[4-(3,3-biscarboxybutoxy)-4-(3-phosphoryloxyphenyl)]spiro[1,2-dioxetane-3,2′-tricyclo[3.3.1.1^3,7]-decane], tetrasodium salt [Dioxetane 5]
Decomposition on storage (in words) [1, 4]: essentially no decomposition
